Legend:
[1] = target: T1, human RBP4 (Homo sapiens, UniProt P02753); assay: Binding assay by Retinol-RBP4-TTR ELISA; details: compound 10 μM; retinol 50 nM; His-tagged human RBP4, biotinylated human TTR; read-out: human RBP4 binding inhibitory activity (% at 10 μM)
T1 construct: the culture supernatant containing secreted hRBP4-His was recovered; made in house; host or cells: FreeStyle 293 expression system (Invitrogen)
Procedure: Using the Retinol-RBP4-TTR ELISA system shown below, the action of the compound of the present invention to inhibit the binding of RBP4 and retinol and TTR was evaluated.
1F: Binding Assay by Retinol-RBP4-TTR ELISA
This ELISA system detects a complex with RBP4 and TTR based on the retinol dependent binding of RBP4 to TTR.
The His-tagged human RBP4 used was prepared in the above-mentioned 1C.
The biotinylated human TTR used was prepared in the above-mentioned 1E.
Streptavidin (20 μl) (10 μg/ml Streptavidin type II (Wako Pure Chemical Industries, Ltd.), 10 mM Tris-HCl (pH 7.5), 10 mM NaCl) was added to a 384 well blackplate (Nunc MaxiSorp, Thermo Fisher Scientific Inc.), and the plate was centrifuged (1000 rpm, 1 min) and coated at 4° C. overnight. The plate was washed twice with PBST (PBS, 0.05% Tween 20, 100 μl/well), and blocked with 25% Block Ace (Snow Brand Milk Products Co., Ltd., PBS, 100 μl/well). The plate was subjected to centrifugation (1000 rpm, 1 min), and incubated at room temperature for 4 hr or 4° C. overnight. The plate was washed twice with PBST (PBS, 0.05% Tween 20, 100 μl/well), and biotinylated human TTR (stock solution concentration 1.0 mg/ml) diluted 750-fold with PBST was added at 20 μl/well. The plate was subjected to centrifugation (1000 rpm, 1 min), and further stood at room temperature for 1.5 hr or 4° C. overnight. The plate was washed 3 times with PBST (100 μl/well), and His-tagged human RBP4 (stock solution concentration 1.28 mg/ml) diluted 4000-fold with a reaction buffer (50 mM Tris-HCl, 150 mM NaCl, 0.005% Tween 20, 1 mM DTT, 0.1% BSA) was added at 10 μl/well. The dilution of the compound (200-fold concentration) was prepared with DMSO, and 1.6 μl each was added to a reaction buffer (320 μl) containing retinol (50 nM) (Sigma-Aldrich Co.). A reaction buffer (320 μl) containing retinol and added with DMSO was used as a positive control, and a reaction buffer (320 μl) not containing retinol and added with DMSO was used as a negative control. A mixed solution of retinol and the compound was added to the plate at 15 μl/well. The plate was stirred in a plate mixer, centrifuged (1000 rpm, 1 min), and reacted at room temperature for 2 hr. Anti-His HRP-conjugated antibody (QIAGEN) solution diluted with a reaction buffer was added […], centrifuged (1000 rpm, 1 min), and reacted at room temperature for 30 min. The plate was washed 3 times with PBST (100 μl/well), SuperSignal ELISA Femto Maximum Sensitivity Substrate reagent (PIERCE, Thermo Fisher Scientific Inc.) was added at 30 μl/well, and the luminescence was measured by a plate reader (Envision).
The binding inhibitory activity of the compound was determined by 100×(positive control value−test compound value)/(positive control value−negative control value).

[2] = target: T2, RBP4 (Mus musculus, UniProt Q00724); assay: Blood RBP4-lowering action in C57BL/6J mouse (plasma RBP4 by ELISA); assay type: in vivo; details: male C57BL/6J mice, mean±SD, n=4 or 5; for RBP4 (initial value/control value %) 8 hr later: plasma 8 hr after administration
T2 construct: from tissue; host or cells: plasma of male C57BL/6J mice (Japan Charles River)
Procedure: The blood RBP4-lowering action of the compound of the present invention was evaluated using C57BL/6J mouse.
Male 7- to 10-week-old C57BL/6J mice (Japan Charles River) were acclimation reared under free food ingestion conditions on CE-2 solid feed (CLEA Japan, Inc.) for 4 to 6 days, and randomly grouped (4 or 5 per group). On the day of the test, blood samples were collected from the tail vein, and plasma was separated (0 hr value). Thereafter, a test compound (Example 1, 4, 5, 6 or 7) was orally administered at a dose of 5 mg/kg (solvent: 0.5% methylcellulose solution (10 mL/kg)). At 8 hr after the compound was administered, blood samples were collected from the tail vein and plasma was separated. Immediately after the blood samples were collected, the test compound was orally administered again at a dose of 5 mg/kg, and blood samples were collected again at 24 hr after the initial administration. In Examples 2, 3 and 8, the initial administration alone was performed at a dose of 10 mg/kg. The daily dose of all the test compounds was set to 10 mg/kg. A 0.5% methylcellulose solution (10 mL/kg) was orally administered to the control group.
The amount of RBP4 in the collected plasma was measured by the ELISA method. Using rabbit anti-mouse RBP4 polyclonal antibody (Hokudo Co., Ltd.), RBP4 was quantified by the following process. A 96 well ELISA plate was coated with 50 μg/mL antibody (100 μL), and stood at 4° C. overnight or at room temperature for 2 hr. After blocking with BlockAce (Dainippon Pharmaceutical Co., Ltd.), 100 μL of mouse RBP4 or sample was added and the plate was stood at room temperature for 2 hr, washed with PBS-0.5% Tween20, added with HRP-labeled anti-RBP4 antibody (prepared by labeling RBP4 polyclonal antibody (Hokudo Co., Ltd.) with HRP (DOJINDO LABORATORIES)) (100 μL), and stood at room temperature for 1 hr. After washing, TMB (Sigma) was added at room temperature for 20 min to allow for color development. The reaction was quenched with 2N sulfuric acid and the absorbance at A450 nm was measured by a platereader. Variation from the initial value of each individual was taken as the relative value to the control group (initial value/control value, %) at each time point. The results are shown below in mean±standard deviation (n=4 or 5).

[3] = system: A2E; assay: Suppression of A2E accumulation in the eyeball of ABCA4 KO mouse (HPLC); assay type: in vivo; details: male ABCA4 KO mice, oral 5 mg/kg twice per day for 12 weeks, n=6
Procedure: The suppressive action for accumulation of retinoid metabolite bis-retinoid N-retinylidene-N-retinylethanolamine (A2E) in the eyeball, of the compound of the present invention, was evaluated using ATP-binding cassette A4 knockout (ABCA4 KO) mouse. A2E is the major constituent component of Lipofuscin in the eyeball, and is involved in the onset and pathology progression in atrophic age-related macular degeneration and Stargardt's disease. ABCA4 KO mouse was confirmed to show remarkable accumulation of A2E, Lipofuscin along with aging, and is known as an animal model of atrophic age-related macular degeneration and Stargardt's disease.
8-Week-old male ABCA4 KO mice were randomly grouped, and 0.5% methylcellulose solution was orally administered to the control group, and 0.5% methylcellulose suspension of a compound at a dose shown in the following Table was orally administered to the test compound group, each twice per day at 10 mL/kg. Each group contained 6 mice. After repetitive administration for 12 weeks, eyeball was isolated under anesthesia.
In the eyeball, A2E was measured by the HPLC method. A2E reference standard was synthesized from all-trans retinal, ethanolamine in acetic acid-added ethanol. […] Quantification was performed at ultraviolet absorbance at 440 nm by PDA.

[4] = oral 5 mg/kg at 0 hr and again at 8 hr (daily dose 10 mg/kg), plasma 24 hr after initial administration
[5] = oral 10 mg/kg initial administration alone
[6] = oral 10 mg/kg initial administration alone, plasma 24 hr after administration

Structure (SMILES) | inhibition at 10 µM [1] [%] | RBP4 (initial value/control value %) 24 hr later [2, 4] [%] | RBP4 (initial value/control value %) 8 hr later ([2]; oral 5 mg/kg) [%] | RBP4 (initial value/control value %) 8 hr later [2, 5] [%] | RBP4 (initial value/control value %) 24 hr later [2, 6] [%] | A2E (% of control value) [3] [%]
O=C(O)CC(=O)N1CC[C@H](COc2ccccc2C2(C(F)(F)F)CC2)C1 [Example 1, 3-oxo-3-((3S)-3-((2-(1-(trifluoromethyl)cyclopropyl)phenoxy)methyl)pyrrolidin-1-yl)propanoic acid] | 100 | 28.49 ± 5.16 | 30.02 ± 6.85 |  |  | 
CC1(c2ccccc2OC[C@H]2CCN(C(=O)CC(=O)O)C2)CC1 [Example 2, 3-((3S)-3-((2-(1-methylcyclopropyl)phenoxy)methyl)pyrrolidin-1-yl)-3-oxopropanoic acid] | 98 |  |  | 11.82 ± 3.24 | 36.40 ± 12.19 | 
O=C(O)CC(=O)N1CC[C@H](COc2ccccc2C2CCC2)C1 [Example 3, 3-((3S)-3-((2-cyclobutylphenoxy)methyl)pyrrolidin-1-yl)-3-oxopropanoic acid] | 98 |  |  | 37.20 ± 3.71 | 95.57 ± 8.55 | 
O=C(O)CC(=O)N1CC[C@H](COc2ccccc2C2CCCC2)C1 [Example 4, 3-((3S)-3-((2-cyclopentylphenoxy)methyl)pyrrolidin-1-yl)-3-oxopropanoic acid] | 100 | 56.02 ± 9.72 | 29.93 ± 6.80 |  |  | 53.94 ± 15.16
O=C(O)CC(=O)N1CC[C@H](COc2ccccc2C2CCCCC2)C1 [Example 5, 3-((3S)-3-((2-cyclohexylphenoxy)methyl)pyrrolidin-1-yl)-3-oxopropanoic acid] | 100 | 62.83 ± 4.70 | 32.30 ± 1.76 |  |  | 
O=C(O)CC(=O)N1CC[C@@H](COc2ccccc2C2CCCC2)C1 [Example 6, 3-((3R)-3-((2-cyclopentylphenoxy)methyl)pyrrolidin-1-yl)-3-oxopropanoic acid] | 100 | 41.90 ± 20.25 | 41.42 ± 13.96 |  |  | 
O=C(O)CC(=O)N1CCC(COc2ccccc2C2CCCC2)C1 (stereo not drawn) [Example 7, 3-(3-((2-cyclopentylphenoxy)methyl)pyrrolidin-1-yl)-3-oxopropanoic acid] | 100 | 53.72 ± 6.97 | 33.90 ± 6.60 |  |  | 
CCOC(=O)CC(=O)N1CC[C@H](COc2ccccc2C2(C(F)(F)F)CC2)C1 [Example 8, ethyl 3-oxo-3-((3S)-3-((2-(1-(trifluoromethyl)cyclopropyl)phenoxy)methyl)pyrrolidin-1-yl)propanoate] |  |  |  | 77.35 ± 7.08 | 92.76 ± 6.81 | 

Source: patent US9944596B2, “Heterocyclic compound” (TAKEDA PHARMACEUTICAL COMPANY LIMITED, priority 2014, dated 2018)
